Source: patent publication US11603349B2, “Anti-fibrotic compounds” (Certa Therapeutics Pty Ltd, priority 2017, dated 2023)
Counter-ions that a name gives are not always drawn.

Columns and labels:
[1] = in vitro; conditions: rat, CC50 (μM)
[2] = tested on: TGF-β induced [14C]-proline incorporation in rat mesangial cells; assay: [14C]-proline incorporation assay (collagen biosynthesis); type: cell-based; conditions: Rattus norvegicus, Mesangial cell, 44 h, inhibition of TGF-β1 (1 ng/ml) induced [14C]-proline incorporation, IRMC cells
[3] = Discrete oral pharmacokinetic studies in male Sprague Dawley rats; type: in vivo, rat; conditions: male SD rats; for change in plasma concentrations between the 75 and 350 mg/kg/day dosing groups: after the initial dose; for adverse compound related effects: 2 and 20 mg/kg single dose, 75 and 350 mg/kg daily (5 days)
Protocol: Discrete oral pharmacokinetic studies were performed for example compounds 116, 107, and 102.
116: 2 mg/kg and 20 mg/kg of 116 were administered as single doses to male Sprague Dawley (SD) rats. 75 mg/kg and 350 mg/kg of 116 were administered daily (5 days) to male Sprague Dawley (SD) rats.
107: 2 mg/kg and 20 mg/kg of 107 were administered as single doses to male Sprague Dawley (SD) rats. 75 mg/kg and 350 mg/kg of 107 were administered daily (5 days) to male Sprague Dawley (SD) rats.
102: 2 mg/kg and 20 mg/kg of 102 were administered as single doses to male Sprague Dawley (SD) rats. 75 mg/kg and 350 mg/kg of 102 were administered daily (5 days) to male Sprague Dawley (SD) rats. […] An increase in plasma concentrations were observed between the 75 and 350 mg/kg/day dosing groups.

[4] = MTS tetrazolium reduction cell viability assay; conditions: rat, rat mesangial cells (1097/IRMC cells), TGF-β1 stimulated, CC50 (μM), vs 1% DMSO vehicle
[5] = tested on: rat mesangial cells (1097/IRMC cells); assay: MTS tetrazolium reduction cell viability assay; conditions: TGF-β1 stimulated IRMC cells, vs 1% DMSO vehicle
[6] = daily, throughout the 5-day study

Row | SMILES | CC50 at 48 h [1] | IC50 [2] | also measured
1 | COc1cc(/C=C/C(=O)Nc2ccccc2C(=O)O)ccc1C1=CCNCC1 [Example 98, (E)-2-(3-(3-methoxy-4-(1,2,3,6-tetrahydropyridin-4-yl)phenyl)acrylamido)benzoic Acid] | 289 µM | 13.5 µM | 
2 | COc1cc(/C=C/C(=O)Nc2ccccc2C(=O)O)ccc1C1=CCN(C)CC1 [Example 99, (E)-2-(3-(3-methoxy-4-(1-methyl-1,2,3,6-tetrahydropyridin-4-yl)phenyl)acrylamido)benzoic Acid] | > 300 µM | 34.7 µM | 
3 | COc1cc(/C=C/C(=O)Nc2ccccc2C(=O)O)ccc1CC1CC1 [Example 102, 2-[[(E)-3-[4-(cyclopropylmethyl)-3-methoxyphenyl]prop-2-enoyl]amino]benzoic Acid] |  | 3.87 µM | coverage of IC50 relative to a 200 mg/kg/day regime of FT011 ([3]; 20 mg/kg): superior; coverage of IC50 relative to a 200 mg/kg/day regime of FT011 ([3]; 75 mg/kg): superior; coverage of IC50 relative to a 200 mg/kg/day regime of FT011 ([3]; 350 mg/kg): superior; change in plasma concentrations between the 75 and 350 mg/kg/day dosing groups [3]: An increase; trough concentrations, 75 and 350 mg/kg/day dosing group [3, 6]: consistent with dosing amounts; CC50 at 48 h [4]: 11.4 µM
4 | COc1ccc(/C=C/C(=O)Nc2ccccc2C(=O)O)cc1C1=CCN(C)CC1 [Example 104, (E)-2-(3-(4-methoxy-3-(1-methyl-1,2,3,6-tetrahydropyridin-4-yl)phenyl)acrylamido)benzoic acid trifluoroacetic acid salt] | 281 µM | 41.4 µM | 
5 | CN1CCOc2ccc(/C=C/C(=O)Nc3ccccc3C(=O)O)cc21 [Example 107, 2-[[(E)-3-(4-methyl-2,3-dihydro-1,4-benzoxazin-6-yl)prop-2-enoyl]amino]benzoic Acid] |  | 14.9 µM | coverage of IC50 relative to a 200 mg/kg/day regime of FT011 ([3]; 350 mg/kg): superior; adverse compound related effects [3]: No adverse compound related effects were observed; change in plasma concentrations between the 75 and 350 mg/kg/day dosing groups [3]: an increase; trough concentrations, 75 and 350 mg/kg/day dosing group [3, 6]: consistent with dosing amounts; CC50 at 48 h [4]: > 100 µM
6 | COc1ccc(/C=C/C(=O)Nc2ccccc2C(=O)O)c(OCCN(C)C)c1OC [Example 116, (E)-2-(3-(2-(2-(dimethylamino)ethoxy)-3,4-dimethoxyphenyl)acrylamido)benzoic Acid] |  |  | coverage of IC50 relative to a 200 mg/kg/day regime of FT011 ([3]; 75 mg/kg): superior; coverage of IC50 relative to a 200 mg/kg/day regime of FT011 ([3]; 350 mg/kg): superior; adverse compound related effects [3]: No adverse compound related effects were observed; change in plasma concentrations between the 75 and 350 mg/kg/day dosing groups [3]: little to no increase; trough concentrations, 350 mg/kg/day dosing group [3, 6]: lower than expected; CC50 at 48 h [4]: 294 µM; CC50 [5]: > 300 µM
7 | COc1cc(/C=C/C(=O)Nc2ccc(F)cc2)ccc1C1=CCNCC1 [Example 120, (E)-N-(4-fluorophenyl)-3-(3-methoxy-4-(1,2,3,6-tetrahydropyridin-4-yl)phenyl)acrylamide] | 10.8 µM | 3.22 µM | 
8 | COc1cc(C2CC2C(=O)Nc2ccc(C#N)cc2)ccc1C1=CCNCC1 (stereo not shown) [Example 121, N-(4-cyanophenyl)-2-(3-methoxy-4-(1,2,3,6-tetrahydropyridin-4-yl)phenyl)cyclopropane Carboxamide] | 8.47 µM | 3.79 µM | 
9 | COc1cc(/C=C/C(=O)Nc2ccc(C#N)cc2)ccc1C1=CCNCC1 [Example 139, (E)-N-(4-cyanophenyl)-3-(3-methoxy-4-(1,2,3,6-tetrahydropyridin-4-yl)phenyl)acrylamide trifluoroacetic acid salt] | 9.03 µM | 5.36 µM | 
10 | COc1cc(/C=C/C(=O)Nc2ccccc2-n2cnc(C)n2)ccc1C1=CCNCC1 [Example 140, (E)-3-(3-methoxy-4-(1,2,3,6-tetrahydropyridin-4-yl)phenyl)-N-(2-(3-methyl-1H-1,2,4-triazol-l-yl)phenyl)acrylamide trifluoroacetic acid salt] | 36.1 µM | 8.47 µM | 
11 | COc1cc(/C=C/C(=O)Nc2ccccc2F)ccc1C1=CCNCC1 [Example 141, (E)-N-(2-fluorophenyl)-3-(3-methoxy-4-(1,2,3,6-tetrahydropyridin-4-yl)phenyl)acrylamide] | 13.5 µM | 4.85 µM | 
12 | COc1cc(/C=C/C(=O)n2nc(O)c3ccccc32)ccc1C1=CCNCC1 [Example 142, (E)-1-(3-hydroxy-1H-indazol-1-yl)-3-(3-methoxy-4-(1,2,3,6-tetrahydropyridin-4-yl)phenyl)prop-2-en-1-one] | > 300 µM | 31.7 µM | 
13 | COc1cc(C2CC2C(=O)Nc2ccc(F)cc2)ccc1C1=CCNCC1 (stereo not shown) [Example 143, N-(4-fluorophenyl)-2-(3-methoxy-4-(1,2,3,6-tetrahydropyridin-4-yl)phenyl)cyclopropane carboxamide trifluoroacetic acid salt] | 7.2 µM | 2.81 µM | 
14 | COc1cc(C2CC2C(=O)Nc2ccccc2-n2cnc(C)n2)ccc1C1=CCNCC1 (stereo not shown) [Example 144, 2-(3-methoxy-4-(1,2,3,6-tetrahydropyridin-4-yl)phenyl)-N-(2-(3-methyl-1H-1,2,4-triazol-1-yl)phenyl)cyclopropanecarboxamide trifluoroacetic acid salt] | 81 µM | 20.9 µM | 
15 | COc1cc(C2CC2C(=O)Nc2ccccc2F)ccc1C1=CCNCC1 (stereo not shown) [Example 145, N-(2-fluorophenyl)-2-(3-methoxy-4-(1,2,3,6-tetrahydropyridin-4-yl)phenyl)cyclopropane carboxamide trifluoroacetic acid] | 11.7 µM | 3.71 µM | 
16 | COc1cc(C2CC2C(=O)n2nc(O)c3ccccc32)ccc1C1=CCNCC1 (stereo not shown) [Example 146, (3-hydroxy-1H-indazol-1-yl)(2-(3-methoxy-4-(1,2,3,6-tetrahydropyridin-4-yl)phenyl)cyclopropyl)methanone trifluoroacetic acid salt] | > 300 µM | 19.6 µM | 
